Experimental data published in patent publication US9926282B2, “Phthalazinones and isoquinolinones as rock inhibitors” (BRISTOL-MYERS SQUIBB COMPANY, priority 2013, dated 2018).

Columns and labels:
ROCK1 = ROCK1 (Homo sapiens (Human), UniProt Q13464); test: ROCK assay (LABCHIP peptide phosphorylation), ROCK1; assay type: biochemical; details: 5 μM ATP, 1.5 μM peptide substrate; read-out: ROCK1 IC50
ROCK2 = ROCK2 (Homo sapiens (Human), UniProt O75116); test: ROCK assay (LABCHIP peptide phosphorylation), ROCK2; assay type: biochemical; details: 5 μM ATP, 1.5 μM peptide substrate
ROCK2, sequence (O75116 whole entry, species assumed): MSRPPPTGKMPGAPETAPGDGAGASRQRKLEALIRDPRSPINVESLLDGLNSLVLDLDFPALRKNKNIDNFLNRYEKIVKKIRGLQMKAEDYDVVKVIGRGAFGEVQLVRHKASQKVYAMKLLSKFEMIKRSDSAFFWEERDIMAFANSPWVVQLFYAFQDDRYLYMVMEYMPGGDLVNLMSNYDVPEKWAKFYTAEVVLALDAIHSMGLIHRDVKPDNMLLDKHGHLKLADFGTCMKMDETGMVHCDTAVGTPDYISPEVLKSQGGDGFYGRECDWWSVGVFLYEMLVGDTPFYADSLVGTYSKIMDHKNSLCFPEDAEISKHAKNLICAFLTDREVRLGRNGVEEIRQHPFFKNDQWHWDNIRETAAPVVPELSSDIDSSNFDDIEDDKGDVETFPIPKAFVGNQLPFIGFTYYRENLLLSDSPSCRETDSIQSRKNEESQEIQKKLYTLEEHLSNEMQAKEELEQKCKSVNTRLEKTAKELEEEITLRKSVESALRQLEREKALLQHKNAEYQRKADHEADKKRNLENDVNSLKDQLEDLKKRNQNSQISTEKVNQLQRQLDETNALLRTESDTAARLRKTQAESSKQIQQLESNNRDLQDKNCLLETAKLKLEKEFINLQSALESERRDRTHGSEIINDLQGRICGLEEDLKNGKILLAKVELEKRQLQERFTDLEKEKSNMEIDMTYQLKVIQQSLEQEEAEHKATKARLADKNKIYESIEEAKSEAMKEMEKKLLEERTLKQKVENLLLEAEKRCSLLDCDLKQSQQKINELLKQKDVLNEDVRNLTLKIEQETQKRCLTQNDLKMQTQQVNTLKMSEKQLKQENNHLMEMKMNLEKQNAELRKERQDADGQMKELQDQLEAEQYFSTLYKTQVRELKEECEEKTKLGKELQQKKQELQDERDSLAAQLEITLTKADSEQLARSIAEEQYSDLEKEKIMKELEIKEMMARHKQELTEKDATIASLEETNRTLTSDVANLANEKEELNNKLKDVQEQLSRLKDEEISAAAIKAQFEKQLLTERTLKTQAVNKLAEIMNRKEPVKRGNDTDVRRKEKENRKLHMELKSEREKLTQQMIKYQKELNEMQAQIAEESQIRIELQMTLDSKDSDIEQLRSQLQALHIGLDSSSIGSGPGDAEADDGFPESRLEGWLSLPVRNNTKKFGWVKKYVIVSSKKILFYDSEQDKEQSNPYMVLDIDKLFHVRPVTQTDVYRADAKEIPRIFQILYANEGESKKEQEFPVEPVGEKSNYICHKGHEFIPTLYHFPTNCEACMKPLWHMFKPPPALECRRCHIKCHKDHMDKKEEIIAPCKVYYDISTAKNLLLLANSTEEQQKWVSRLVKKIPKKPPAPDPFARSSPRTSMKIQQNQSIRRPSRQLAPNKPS

ROCK1, sequence (Q13464 whole entry, species assumed): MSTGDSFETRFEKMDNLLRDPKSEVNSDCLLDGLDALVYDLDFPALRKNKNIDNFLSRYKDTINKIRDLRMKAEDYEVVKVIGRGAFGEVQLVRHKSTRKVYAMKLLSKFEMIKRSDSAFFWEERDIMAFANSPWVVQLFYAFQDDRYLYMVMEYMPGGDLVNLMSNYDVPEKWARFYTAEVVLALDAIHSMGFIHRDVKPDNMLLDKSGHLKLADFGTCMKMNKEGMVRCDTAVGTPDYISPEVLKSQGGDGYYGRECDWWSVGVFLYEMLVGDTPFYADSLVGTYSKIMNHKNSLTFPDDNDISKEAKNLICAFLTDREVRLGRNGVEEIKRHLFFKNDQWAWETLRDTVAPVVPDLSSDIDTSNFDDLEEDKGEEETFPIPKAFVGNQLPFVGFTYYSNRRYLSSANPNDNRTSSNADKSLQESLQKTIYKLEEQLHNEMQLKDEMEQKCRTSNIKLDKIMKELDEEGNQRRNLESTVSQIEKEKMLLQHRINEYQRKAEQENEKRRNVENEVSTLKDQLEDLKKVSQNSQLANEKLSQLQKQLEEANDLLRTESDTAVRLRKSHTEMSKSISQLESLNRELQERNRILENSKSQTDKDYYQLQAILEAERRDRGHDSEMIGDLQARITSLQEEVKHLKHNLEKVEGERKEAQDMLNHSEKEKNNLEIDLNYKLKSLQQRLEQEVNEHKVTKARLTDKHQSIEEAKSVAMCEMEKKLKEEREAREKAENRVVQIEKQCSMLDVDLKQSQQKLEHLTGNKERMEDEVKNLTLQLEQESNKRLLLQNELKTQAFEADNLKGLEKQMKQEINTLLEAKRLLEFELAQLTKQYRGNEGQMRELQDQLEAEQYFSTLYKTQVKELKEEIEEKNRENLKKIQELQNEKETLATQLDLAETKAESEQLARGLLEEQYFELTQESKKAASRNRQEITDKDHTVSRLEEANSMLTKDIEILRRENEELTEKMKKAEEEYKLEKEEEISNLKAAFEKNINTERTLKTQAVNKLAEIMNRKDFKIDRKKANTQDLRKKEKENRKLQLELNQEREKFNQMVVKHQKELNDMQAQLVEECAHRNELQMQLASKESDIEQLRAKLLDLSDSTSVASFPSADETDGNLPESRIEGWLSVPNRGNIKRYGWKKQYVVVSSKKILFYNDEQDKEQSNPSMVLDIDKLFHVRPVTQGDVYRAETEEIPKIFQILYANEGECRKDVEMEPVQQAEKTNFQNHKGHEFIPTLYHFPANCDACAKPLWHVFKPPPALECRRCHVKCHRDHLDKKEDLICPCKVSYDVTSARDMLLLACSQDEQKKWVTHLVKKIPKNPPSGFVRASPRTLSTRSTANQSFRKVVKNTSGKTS

Compound	IC50 (ROCK1) [nM]	IC50 (ROCK2) [nM]
CN(C)CCOc1ccc2c(c1)N(C(=O)Cc1ccc(-c3n[nH]c(=O)c4ccccc34)cc1)CC2 [Example 279, 4-[4-(2-{6-[2-(dimethylamino)ethoxy]-2,3-dihydro-1H-indol-1-yl}-2-oxoethyl)phenyl]-1,2-dihydrophthalazin-1-one]	101 to 1000	0.1 to 100
Cc1cc(NC(=O)c2nn(CC3CCN(C(=O)OCc4ccccc4)CC3)c3ccccc23)ccc1-c1n[nH]c(=O)c2ccccc12 [Example 307, benzyl 4-[(3-{[3-methyl-4-(4-oxo-3,4-dihydrophthalazin-1-yl)phenyl]carbamoyl}-1H-indazol-1-yl)methyl] piperidine-1-carboxylate]	101 to 1000	0.1 to 100
CC(C)N1CC(C(=O)Nc2ccc(-c3n[nH]c(=O)c4ccccc34)cc2)CC1=O (centres unmarked) [Example 218, 5-oxo-N-[4-(4-oxo-3,4-dihydrophthalazin-1-yl)phenyl]-1-(propan-2-yl)pyrrolidine-3-carboxamide]	1000 to 50000	101 to 1000
Cc1cc(NC(=O)c2nn(CC3CCOCC3)c3ccccc23)ccc1-c1n[nH]c(=O)c2ccccc12 [Example 313, N-[3-methyl-4-(4-oxo-3,4-dihydrophthalazin-1-yl)phenyl]-1-(oxan-4-ylmethyl)-1H-indazole-3-carboxamide]	0.1 to 100	0.1 to 100
O=C(Nc1ccc(-c2n[nH]c(=O)c3ccccc23)cc1)c1cnn2ccccc12 [Example 103, N-[4-(4-oxo-3,4-dihydrophthalazin-1-yl)phenyl]pyrazolo[1,5-a]pyridine-3-carboxamide]	0.1 to 100	0.1 to 100
Cn1cc(C(=O)Nc2ccc(-c3n[nH]c(=O)c4ccccc34)cc2)c2ccccc21 [Example 122, 1-methyl-N-[4-(4-oxo-3,4-dihydrophthalazin-1-yl)phenyl]-1H-indole-3-carboxamide]	0.1 to 100	0.1 to 100
O=C(Nc1ccc(-c2n[nH]c(=O)c3ccccc23)cc1)c1ccc(N2CCCC2)cc1 [Example 60]	0.1 to 100	0.1 to 100
COCCN1CCC(C(=O)Nc2ccc(-c3n[nH]c(=O)c4ccccc34)cc2)C1 (centres unmarked) [Example 57, 1-(2-methoxyethyl)-N-[4-(4-oxo-3,4-dihydrophthalazin-1-yl)phenyl]pyrrolidine-3-carboxamide]	1000 to 50000	1000 to 50000
O=C(Nc1ccc(-c2n[nH]c(=O)c3ccccc23)cc1)c1nn(CC2CCOC2)c2ccccc12 (centres unmarked) [Example 146, N-[4-(4-oxo-3,4-dihydrophthalazin-1-yl)phenyl]-1-(oxolan-3-ylmethyl)-1H-indazole-3-carboxamide]	0.1 to 100	0.1 to 100
O=C(Nc1ccc(-c2n[nH]c(=O)c3ccccc23)cc1)C1CCc2ccccc21 (centres unmarked) [Example 91, N-[4-(4-oxo-3,4-dihydrophthalazin-1-yl)phenyl]-2,3-dihydro-1H-indene-1-carboxamide]	1000 to 50000	0.1 to 100
Cc1cc(C(=O)Nc2ccc(-c3n[nH]c(=O)c4ccccc34)cc2)nn1-c1ccccc1 [Example 213, 5-methyl-N-[4-(4-oxo-3,4-dihydrophthalazin-1-yl)phenyl]-1-phenyl-1H-pyrazole-3-carboxamide]	0.1 to 100	0.1 to 100
Cn1ccnc1C(=O)Nc1ccc(-c2n[nH]c(=O)c3ccccc23)cc1 [Example 52, 1-methyl-N-[4-(4-oxo-3,4-dihydrophthalazin-1-yl)phenyl]-1H-imidazole-2-carboxamide]	101 to 1000	101 to 1000
COc1cc(C)c2c(c1)CCN2C(=O)Cc1ccc(-c2n[nH]c(=O)c3ccccc23)cc1 [Example 252, 4-(4-(2-(5-Methoxy-7-methylindolin-1-yl)-2-oxoethyl)phenyl)phthalazin-1(2H)-one]	1000 to 50000	101 to 1000
O=C(O)CCn1nc(C(=O)Nc2ccc(-c3n[nH]c(=O)c4ccccc34)cc2)c2ccccc21 [Example 331, 3-(3-((4-(4-Pxo-3,4-dihydrophthalazin-1-yl)phenyl)carbamoyl)-1H-indazol-1-yl)propanoic acid]	101 to 1000	0.1 to 100
O=C(Cc1ccc(-c2n[nH]c(=O)c3ccccc23)cc1)NC1CCC1 [Example 19, N-cyclobutyl-2-[4-(4-oxo-3,4-dihydrophthalazin-1-yl)phenyl]acetamide]	1000 to 50000	1000 to 50000
O=C(Nc1ccc(-c2n[nH]c(=O)c3ccccc23)cc1)c1cn2ccncc2n1 [Example 133, N-[4-(4-oxo-3,4-dihydrophthalazin-1-yl)phenyl]imidazo[1,2-a]pyrazine-2-carboxamide]	101 to 1000	0.1 to 100
O=C(Nc1ccc(-c2n[nH]c(=O)c3ccccc23)cc1)c1cnn2cc(OCCN3CCCC3)ccc12 [Example 176, N-[4-(4-oxo-3,4-dihydrophthalazin-1-yl)phenyl]-6-[2-(pyrrolidin-1-yl)ethoxy]pyrazolo[1,5-a]pyridine-3-carboxamide]	0.1 to 100	0.1 to 100
CN1CCc2nc(C(=O)Nc3ccc(-c4n[nH]c(=O)c5ccccc45)cc3)sc2C1 [Example 51, 5-methyl-N-[4-(4-oxo-3,4-dihydrophthalazin-1-yl)phenyl]-4H,5H,6H, 7H-[1,3]thiazolo[5,4-c] pyridine-2-carboxamide]	1000 to 50000	0.1 to 100
Cc1ccn2cc(C(=O)Nc3ccc(-c4n[nH]c(=O)c5ccccc45)cc3)nc2c1 [Example 126, 7-methyl-N-[4-(4-oxo-3,4-dihydrophthalazin-1-yl)phenyl]imidazo[1,2-a]pyridine-2-carboxamide]	101 to 1000	0.1 to 100
CN1CCN(C(=O)COc2ccc3c(c2)N(C(=O)Cc2ccc(-c4n[nH]c(=O)c5ccccc45)cc2)CC3)CC1 [Example 299, 4-(4-(2-(6-(2-(4-Methylpiperazin-1-yl)-2-oxoethoxy)indolin-1-yl)-2-oxoethyl)phenyl)phthalazin-1(2H)-one]	101 to 1000	0.1 to 100
O=C(Cc1ccc(-c2n[nH]c(=O)c3ccccc23)cc1)Nc1nncs1 [Example 29, 2-[4-(4-oxo-3,4-dihydrophthalazin-1-yl)phenyl]-N-(1,3,4-thiadiazol-2-yl)acetamide]	1000 to 50000	0.1 to 100
O=C(Cc1ccc(-c2n[nH]c(=O)c3ccccc23)cc1)N1CCc2ccc(OCc3ccncc3)cc21 [Example 272, 4-(4-{2-oxo-2-[6-(pyridin-4-ylmethoxy)-2,3-dihydro-1H-indol-1-yl]ethyl}phenyl)-1,2-dihydrophthalazin-1-one]	0.1 to 100	0.1 to 100
CCOc1ccc2c(c1)cc(C(=O)Nc1ccc(-c3n[nH]c(=O)c4ccccc34)cc1)n2C [Example 130, 5-ethoxy-1-methyl-N-[4-(4-oxo-3,4-dihydrophthalazin-1-yl)phenyl]-1H-indole-2-carboxamide]	0.1 to 100	0.1 to 100
Cc1ccn2c(C(=O)Nc3ccc(-c4n[nH]c(=O)c5ccccc45)cc3)c(C)nc2c1 [Example 139, 2,7-dimethyl-N-[4-(4-oxo-3,4-dihydrophthalazin-1-yl)phenyl]imidazo[1,2-a]pyridine-3-carboxamide]	0.1 to 100	0.1 to 100
O=C(Nc1ccc(-c2n[nH]c(=O)c3ccccc23)cc1)C1Cc2cc(O)ccc2O1 (centres unmarked) [Example 106, 5-hydroxy-N-[4-(4-oxo-3,4-dihydrophthalazin-1-yl)phenyl]-2,3-dihydro-1-benzofuran-2-carboxamide]	1000 to 50000	0.1 to 100
